# Measurements reported in US12194007B2, “Pharmaceutical composition for preventing or treating cancer, comprising gossypol, phenformin, and anticancer agent” (National Cancer Center, priority 2018, dated 2025).
# Assays:
# [1] = system: BT549 cell line or MB231 cell line; test: SRB cell proliferation assay, breast cancer cell lines; type: cell-based
# [2] = system: PC3 cell line or DU145 cell line; test: SRB cell proliferation assay, prostate cancer cell lines; type: cell-based; details: gossypol 5 μM, phenformin 100 μM, doxorubicin 1 nM, single, double or triple (Table 19, FIG. 7A)
# [3] = system: PC3 cells xenograft tumor; test: Prostate cancer mouse model, tumor growth; type: in vivo, Balb/c-nu mice; details: gossypol 80 mg/kg, phenformin 100 mg/kg, doxorubicin 5 mg/kg, single, double or triple (Table 28, FIGS. 13A, 13B)
# [4] = system: A549 cell line xenograft tumor; test: Lung cancer mouse model, tumor growth; type: in vivo, Balb/c-nu mice
# Description: First, in order to make a lung cancer mouse model, 6 to 8 week old Balb/c-nu mice (Central Lab. Animal, Highland Heights, KY, USA) were prepared. In addition, 7.5×10^6 A549 cell line was cultured, and was injected subcutaneously to the prepared mice with a 1 ml syringe. Mice were reared for 1 week and divided into 4 groups of 8 mice each, and these were used as a control group or an experimental group as defined in [Table 24] and [Table 25]. […] While breeding, the average was obtained by checking the weight and size of the tumor of the mouse group every 7 days. After injection of lung cancer cells, the initial tumor size was specified using a calliper. The tumor volume was calculated according to the following [Equation 1].
SMILES,"synergistic effect of anticancer action when mixed with gossypol and phenformin ([1]; breast cancer, named agent + gossypol 5 μM + phenformin 100 μM (Tables 13-15))","effect of inhibiting cell proliferation in the triple drug treatment group ([1]; cisplatin 1 μM or doxorubicin 1 μM mixed with gossypol 5 μM and phenformin 100 μM (Tables 14-15, FIGS. 5B, 5C))",degree of cell proliferation with respect to the untreated control [2],tumor growth level [3],anticancer synergistic effect of the triple drug administration ([4]; gemcitabine 40 mg/kg with gossypol 80 mg/kg and phenformin 100 mg/kg (FIG. 10)),"tumor growth (change in tumor size) ([4]; gemcitabine experiment: gossypol 80 mg/kg, phenformin 100 mg/kg, gemcitabine 40 mg/kg, single or double (Table 25, FIG. 10))"
COc1cccc2c1C(=O)c1c(O)c3c(c(O)c1C2=O)C[C@@](O)(C(=O)CO)C[C@@H]3O[C@H]1C[C@H](N)[C@H](O)[C@H](C)O1 [doxorubicin],not exhibited,level similar to that of the double drug treatment group,proliferation of cancer cells could be inhibited at a significant level,significantly inhibited tumor growth compared to the solvent control group,,
Nc1ccn([C@@H]2O[C@H](CO)[C@@H](O)C2(F)F)c(=O)n1 [gemcitabine],,,,,not observed,tumor growth at a level similar to that of the solvent administration group
